According to US20240091210A1, “USE OF 5-[[4-[2-[5-ACETYLPYRIDIN-2-YL]ETHOXY]BENZYL]-1,3-THIAZOLIDINE-2,4-DIONE AND ITS SALTS” (Minoryx Therapeutics S.L., priority 2018, published 2024):

What was measured:
[1] = Plasma pharmacokinetics in dogs after single oral 3 mg/kg M3 or MIN-102; type: in vivo, male Beagle dogs
Method: (§1) The plasma pharmacokinetics of 5-[[4-[2-[5-acetylpyridin-2-yl]ethoxy]phenyl]methyl]-1,3-thiazolidine-2,4-dione (M-III; M3) and 5-[[4-[2-[5-(1-hydroxyethyl)pyridin-2-yl]ethoxy]phenyl]methyl]-1,3-thiazolidine-2,4-dione (M-IV; M4) were determined in male Beagle dogs following a single oral (3 mg/kg) dose administration of either M3 or MIN-102.
Six animals were dosed orally with a suspension formulation of either M-III or MIN-102 in 0.1% Tween 80 and 99.9% CMC (aqueous carboxymethylcellulose 0.5% w/v solution in RO water) at 3 mg/kg. Blood samples (0.5 ml) were collected from the saphenous or cephalic or jugular veins of dogs at predose, 0.5, 1, 2, 4, 6 and 24 hr. Samples were collected into labeled micro-tubes, containing K2EDTA solution (20% K2EDTA solution) as an anticoagulant. Plasma was immediately harvested from the blood by centrifugation at 4000 rpm for 10 min and stored below −70° C. until bioanalysis.
(§2) Concentrations of M3 and M-IV in dog plasma samples were determined by fit-for-purpose LC-MS/MS method. Non-Compartmental-Analysis module in Phoenix WinNonlin® (Version 6.3) was used to assess the pharmacokinetic parameters. Peak plasma concentrations (Cmax) and time for the peak plasma concentrations (Tmax) were the 59 observed values. The areas under the concentration time curve (AUClast and AUCinf) were calculated by linear trapezoidal rule.

[2] = Plasma pharmacokinetics in rats after single oral 10 mg/kg M-III or MIN-102; type: in vivo, male Sprague Dawley rats
Method: as §1, with “male Sprague Dawley” for “male Beagle dogs”, “oral (10” for “oral (3”, “either M-III” for “either M3”
Six animals were dosed orally with a suspension formulation of either M-III or MIN-102 in 0.1% Tween 80 and 99.9% CMC (0.5% w/v solution in RO water) at 10 mg/kg.
The dosing volume administered was 10 mL/kg. Blood samples (approximately 60 μL) were collected from retro-orbital plexus of three rats at 0.08, 0.25, 0.5, 1, 2, 4, 8, 12 and 24 hr (IV) and at predose, 0.25, 0.5, 1, 2, 4, 8, 12 and 24 hr. Samples were collected into labeled micro-tubes, containing K2EDTA solution (20% K2EDTA solution) as an anticoagulant. Plasma was immediately harvested from the blood by centrifugation at 4000 rpm for 10 min at 4±2° C. and stored below −70° C. until bioanalysis.
as §2, with “M-III” for “M3”, “rat” for “dog”, “(Cax)” for “(Cmax)”, “the” for “the 59”

[3] = Plasma pharmacokinetics in mice after single oral 50 mg/kg M-III; type: in vivo; conditions: male C57BL/6 mice
Method: as §1, with “To the” for “The”, “(M-III)” for “(M-III; M3)”, “(M-IV)” for “(M-IV; M4)”, “C57BL/6 mice” for “Beagle dogs”, “(50” for “(3”, “M-III.” for “either M3 or MIN-102.”
Nine animals were administered orally with suspension formulation of M-III in 0.1% Tween 80 and 99.9% NaCMC in water (0.5% w/v) at 50 mg/kg dose. The dosing volume administered was 10 mL/kg. The blood samples were collected from set of three mice at each time point in labeled micro centrifuge tube containing K2EDTA solution as anticoagulant at Pre-dose, 0.25, 0.5, 1, 2, 4, 8, 12 and 24 hr. Plasma samples were separated by centrifugation of whole blood and stored below −70±10° C. until bioanalysis. All samples were processed for analysis by protein precipitation using acetonitrile and analyzed with fit-for-purpose LC-MS/MS method (LLOQ=2.46 ng/mL for M-III and 2.49 ng/mL for M-IV). Pharmacokinetic parameters were calculated using the non-compartmental analysis tool of Phoenix WinNonlin® (Version 6.3).

[4] = Plasma pharmacokinetics in mice after single oral 4.5 mg/kg M-III or MIN-102; type: in vivo, male C57BL/6 mice
Method: The plasma pharmacokinetics of 5-[[4-[2-[5-acetylpyridin-2-yl]ethoxy]phenyl]methyl]-1,3-thiazolidine-2,4-dione (M-III) and 5-[[4-[2-[5-(1-hydroxyethyl)pyridin-2-yl]ethoxy]phenyl]methyl]-1,3-thiazolidine-2,4-dione (M-IV) were determined in male C57BL/6 mice following a single oral (4.5 mg/kg) dose of either M-III or MIN-102 (5-[[4-[2-[5-(1-hydroxyethyl)pyridin-2-yl]ethoxy]phenyl]methyl]-1,3-thiazolidine-2,4-dione hydrochloride).
Animals were administered orally with a suspension formulation of either M-III or MIN-102 in 0.1% Tween 80 and 99.9% NaCMC in water (0.5% w/v) at 4.5 mg/kg dose. The blood samples were collected from a set of three mice at each time point in labeled micro centrifuge tubes containing K2EDTA solution as anticoagulant at Pre-dose, 0.25, 0.5, 1, 2, 4, 8, 12 and 24 hr. Plasma samples were separated by centrifugation of whole blood and stored below −70±10° C. until bioanalysis. All samples were processed for analysis by protein precipitation using acetonitrile and analyzed with fit-for-purpose LC-MS/MS method (LLOQ=2.46 ng/mL for M-III and 2.49 ng/mL for M-IV). Pharmacokinetic parameters were calculated using the non-compartmental analysis tool of Phoenix WinNonlin® (Version 6.3).

[5] = tested on: MDR1; test: MDCKII monolayer assay; type: in vitro ADME; conditions: dog, MDCK; after 120 minutes, MDCKII-MDR1 and MDCKII-Mock; loss due to conversion to M-IV
Method: The monolayer assays were performed using parental and MDR1 transfected MDCKII cell monolayers. MDCKII and MDCKII-MDR1 cells were cultured in Dulbecco's Modified Eagle's Medium with 4.5 g/L glucose (DMEM) supplemented with 10% (v/v) fetal bovine serum (FBS) at 37±1° C. in an atmosphere of 95:5 air:CO2 in cell culture flasks prior to seeding into 24-transwell inserts. Transfected and parental MDCKII cells were cultured on the inserts with 400 μL medium per well on the apical side and 25 mL in a single-well receiver tray for all 24 wells on the basolateral side, for 96 hours. Medium was changed 24 hours before the experiment. Trans-epithelial electric resistance (TEER) of each well was measured to confirm the confluency of the monolayers prior to the experiments. Permeability incubations were carried out in Hank's Buffered Salt Solution (HBSS) at 37±1° C. Apical to basolateral permeability of Lucifer yellow (LY) was assessed as a low permeability control and antipyrine was as a high permeability compound. […] LY samples were analyzed by measuring fluorescence with the following wavelengths: excitation—485 nm emission—520 nm, while the antipyrine samples were analyzed with LC-MS/MS.
As another follow-up, MDCKII-MDR1 substrate experiment was repeated at […] M-III. The amounts of M-III and M-IV were determined at the end of the incubation time. […]

[6] = as described in WO 2015/150476 A1; cited from earlier work

share of total exposure (AUC) ([1]; after single oral 3 mg/kg M3, male dogs): ~16%
share of total exposure (AUC) ([1]; after single oral 3 mg/kg MIN-102, male dogs): about 8%
share of total exposure (AUC) ([2]; after single oral 10 mg/kg M-III, male rats): ~53%
share of total exposure (AUC) ([2]; after single oral 10 mg/kg MIN-102, male rats): about 42%
share of total exposure (AUC) [3]: about 25%
share of total exposure (AUC) ([4]; after single oral 4.5 mg/kg M-III, male mice): ~27%
share of total exposure (AUC) ([4]; after single oral 4.5 mg/kg MIN-102, male mice): about 38%
recovery at 120 min [5]: 30 to 60%
Compound: CC(=O)c1ccc(CCOc2ccc(CC3SC(=O)NC3=O)cc2)nc1 (stereo not drawn) [M-III, 5-[[4-[2-[5-acetylpyridin-2-yl]ethoxy]phenyl]methyl]-1,3-thiazolidine-2,4-dione]
blood-brain-barrier penetration [6]: does not penetrate the BBB
